pEC50: −log10 of the molar value.
What was measured:
[1] = test system: peripheral mononeuropathy nerve injury-induced tactile allodynia; experiment: Chung model of neuropathic pain (Chung surgery and von Frey test); format: in vivo, Sprague Dawley rats; conditions: 10 mg/kg, i.v.; von Frey thresholds over 90 min, rat
Experimental: Chung model of neuropathic pain (Chung surgery and von Frey test). To test agents for activity against peripheral mononeuropathy nerve injury-induced tactile allodynia, male Sprague Dawley rats (wt. 120-160 g) were surgically prepared with unilateral tight ligation of spinal nerves L5 and L6 following the method of Kim and Chung (Kim S. H., Chung J. M. (1992) Pain, September; 50(3):355-63). After 3-4 weeks recovery, paw withdrawal to light touch was assessed as described by Chaplan et al. (Chaplan S. R., et al., (1994) J. Neurosci Methods, July; 53(1):55-63). […] After acclimation, baseline von Frey thresholds were assessed for the injured hindpaw at −15 min. […] Following drug administration, von Frey thresholds were measured at 15, 30, 60 and 90 min. Data were analyzed by a 2-way repeated measures analysis of variance followed by Dunnett's test (p<0.05). […]
Reversal of neuropathic pain behavior may be expressed as a percentage (0-100%) of the maximum possible effect, over and above the vehicle effects. […]
For example, a compound which immediately reversed neuropathic pain behavior to normal levels, such that animals only responded to the highest von Frey filament (15 g), and maintained normal levels through out the post-drug testing period (90 min) would be calculated as Δ% MPE=100%.

mKCNQ2 channels = molecular target: T1, mKCNQ2 channels (Mus musculus, UniProt Q9Z351); experiment: KCNQ patch-clamp (whole-cell recordings, HEK 293 stable cell line); format: cell-based; conditions: current of KCNQ2 channels, HEK 293 cells expressing mKCNQ2
T1 construct: expressed in transfected cells
Experimental: KCNQ Patch-clamp. Whole-cell patch-clamp recordings were made from an HEK 293 stable cell line expressing mKCNQ2 channels, maintained in culture for 1-2 days. Patch pipettes had initial resistances of 2.5-4 MΩ. Currents were recorded with an EPC-9 amplifier (HEKA, Lambrecht, Germany) controlled with software (Pulse, HEKA) run on a standard lab PC. Series resistance compensation was used during current recording, and set at 80%. The series resistance (R) and cell capacitance (C) were determined electronically by subtracting the capacitive currents at the onset and offset of a 5 mV voltage step. The cancellation of whole-cell capacitive transients was virtually complete in all cells. Analog current signals were low-pass filtered at 2.9 kHz using a four-pole Bessel filter −3 dB) and stored on a local network server computer at a sampling rate of […]. All recordings were performed at room temperature (20-22° C.). The pipette solution contained (mM) KCl, 150; CaCl2, 2.5; EGTA, 5; MgCl2, 1; HEPES, 10; pH to 7.3 with KOH, and Osmolality of 290-300 mOsm. The extracellular solution contained (mM): NaCl, 140; KCl, 2.5; CaCl2, 2.5; MgCl2, 1; glucose, 10; HEPES, 10; pH to 7.3 with NaOH, and Osmolality of 305-310 mOsm. […]

[2] = test system: systemic polyneuropathy nerve injury-induced tactile allodynia; experiment: Diabetic model of neuropathic pain (Streptozoticin & von Frey test); format: in vivo, Sprague Dawley rats; conditions: 10 mg/kg, i.v.; STZ diabetic rats, von Frey thresholds over 90 min
Experimental: Diabetic model of neuropathic pain (Streptozoticin & von Frey test). To test agents for activity against systemic polyneuropathy nerve injury-induced tactile allodynia, animals were treated with streptozoticin (STZ) to create a diabetic condition by selective cytotoxic action upon pancreatic β-islet cells that produce insulin following the method of Courteix, et al. (Courteix C., et al., (1993) Pain, April; 53(1):81-8). In brief, male Sprague Dawley rats (wt. 200-275 g) received an injection of STZ (75 mg/kg, i.p.) and diabetes was confirmed three weeks after STZ injection by measurement of tail vein blood glucose levels. After 3-4 weeks, paw withdrawal to light touch was assessed as described by Chaplan et al. (Chaplan S. R., et al., (1994) J Neurosci Methods, July; 53(1):55-63). In brief, rats are placed in a plastic cage with a wire mesh bottom and allowed to acclimate for 15-30 minutes, until cage exploration and grooming stops. […] After acclimation, baseline von Frey thresholds were assessed for the injured hindpaw at −15 min. […] Following drug administration, von Frey thresholds were measured at 15, 30, 60 and 90 min. Data were analyzed by a 2-way repeated measures analysis of variance followed by Dunnett's test (p<0.05). […]

CC(NC(=O)c1sc(-c2ccccc2F)nc1C(F)(F)F)c1cccc(OC(F)(F)F)c1 (stereo not drawn) [Example 21, 2-(2-fluorophenyl)-4-(trifluoromethyl)-N-[1-[3-(trifluoromethoxy)phenyl]ethyl]-5-thiazolecarboxamide]
AUC (Δ % MPE) [1]: 28 (10 mg/kg, i.v.) Δ % MPE | pEC50 (mKCNQ2 channels): 8.52 | AUC (Δ % MPE) [2]: 28 (10 mg/kg, i.v.) Δ % MPE

— US7273866B2, “2-aryl thiazole derivatives as KCNQ modulators” (Bristol-Myers Squibb Company, priority 2002, dated 2007)
